According to patent publication US10517869B2 (SENTISS PHARMA PRIVATE LIMITED, priority 2013, dated 2019):
Where two headings read alike, the source gives them in different places.

Assays:
[1] = at a pH of 6.4
[2] = Compatibility of quaternary ammonium preservative with brimonidine (precipitation); format: physicochemical; details: pH of around 6.0
Description: Benzododecinium bromide forms an ion pair with brimonidine, thereby neutralizing the charge of brimonidine.
Benzododecinium halide (e.g., bromide) forms an ion pair with brimonidine, thereby neutralizing the charge of brimonidine. […] Thus it was surprising to find that benzododecinium halide is compatible with brimonidine.

[3] = cited from earlier work

## Brc1c(NC2=NCCN2)ccc2nccnc12 [Brimonidine]
[1]
  ionized: about 90%

## CCCCCCCCCCCC[N+](C)(C)Cc1ccccc1.[Br-] [benzododecinium bromide]
[2]
  precipitation with brimonidine: does not form a precipitation with brimonidine

## benzalkonium chloride
[2]
  precipitation with brimonidine: forms a hazy solution

## brimonidine tartrate
[3]; Study 1, pH 5.55
  Solubility: ≥164.4
[3]; Study 1, pH 5.92
  Solubility: 132.6
[3]; Study 1, pH 6.14
  Solubility: 30.4
[3]; Study 1, pH 6.57
  Solubility: 7.55
[3]; Study 1, pH 7
  Solubility: 2.69
[3]; Study 1, pH 7.45
  Solubility: 1.17
[3]; Study 1, pH 7.83
  Solubility: 0.62
[3]; Study 2, pH 5.5
  Solubility: ≥200.6
[3]; Study 2, pH 5.92
  Solubility: 160.8
[3]; Study 2, pH 6.06
  Solubility: 50.1
[3]; Study 2, pH 6.9
  Solubility: 3.19
[3]; Study 2, pH 7.4
  Solubility: 1.19
[3]; Study 2, pH 7.77
  Solubility: 0.63
[3]; Study 2, pH 7.86
  Solubility: 0.58
[3]; Study 2, pH 7.88
  Solubility: 0.54
